The target in one test is T1, AxyC (Aspergillus oryzae, UniProt A0ABQ6KV83).
T1 sequence (A0ABQ6KV83 1-654): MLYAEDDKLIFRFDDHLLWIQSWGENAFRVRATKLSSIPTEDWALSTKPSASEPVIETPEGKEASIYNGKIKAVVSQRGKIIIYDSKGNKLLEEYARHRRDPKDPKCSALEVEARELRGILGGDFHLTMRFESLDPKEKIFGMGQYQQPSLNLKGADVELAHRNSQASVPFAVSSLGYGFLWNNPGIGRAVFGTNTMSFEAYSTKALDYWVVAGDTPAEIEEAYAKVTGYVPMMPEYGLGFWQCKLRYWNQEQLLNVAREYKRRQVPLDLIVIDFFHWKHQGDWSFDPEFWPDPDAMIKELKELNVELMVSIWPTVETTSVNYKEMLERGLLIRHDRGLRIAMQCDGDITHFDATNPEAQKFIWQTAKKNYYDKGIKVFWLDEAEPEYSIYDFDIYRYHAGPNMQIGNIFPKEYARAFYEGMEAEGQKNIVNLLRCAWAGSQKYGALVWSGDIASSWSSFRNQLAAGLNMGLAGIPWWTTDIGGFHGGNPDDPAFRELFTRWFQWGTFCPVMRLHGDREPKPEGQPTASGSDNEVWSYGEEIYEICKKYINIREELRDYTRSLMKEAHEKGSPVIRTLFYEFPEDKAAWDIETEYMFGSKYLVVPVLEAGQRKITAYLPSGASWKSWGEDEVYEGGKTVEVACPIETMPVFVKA
Briefly: absorbance of released p-nitrophenol at […] nm. Type of test: biochemical. As to conditions: read-out: Relative activity (%) at 40 mM.

Test [1] addresses Aspergillus oryzae α-xylosidase AxyC, His6-tagged (Aspergillus oryzae). The test can be described thus: SEC. Background: In gel filtration, larger molecules generally elute earlier.

In general, stoichiometry N refers to a count of units in the complex or per binding partner.

In the case of `OC1OC[C@@H](O)[C@H](O)[C@H]1O` (stereo partly drawn) [D-xylose], the activity at 40000 µM on AxyC was 84.8 ± 4.5%. In test [1], “Aspergillus oryzae α-xylosidase AxyC, His6-tagged (enzyme)” gave a stoichiometry N of 4.
